In US9000162B2, “5,8-difluoro-4-(2-(4-(heteroaryloxy)-phenyl)ethylamino)quinazolines and their use as agrochemicals” (Dow AgroSciences LLC, priority 2008, dated 2015):
Converted amounts (≈) assume the structure as drawn.

How the values were obtained:
[1] = tested on: Pseudoperonospora cubensis (PSPECU); test: Cucumber downy mildew foliar protectant test; type: in vivo; conditions: 200 ppm foliar, inoculated one day after treatment, read-out: Activity against fungal diseases PSPECU
Method in brief: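 Cucumber seedlings, first true leaf 20-80% expanded, were sprayed to wetness with formulated compound and inoculated next day with aqueous sporangia suspension. Severity was converted to percent control versus untreated inoculated plants: ***=80-100%, **=50-79%, *=0-49%.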

[2] = tested on: Puccinia recondita tritici (PUCCRT); test: Leaf rust of wheat foliar protectant test; type: in vivo; conditions: 200 ppm foliar, inoculated one day after treatment, read-out: Activity against fungal diseases PUCCRT
Method in brief: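 Wheat seedlings (3–8 per pot) were sprayed to wet with formulated compound and inoculated the next day with an aqueous Puccinia recondita tritici spore suspension. Severity was converted to % control versus untreated inoculated plants and rated *** 80–100%, ** 50–79%, * 0–49%.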

[3] = tested on: Magnaporthe grisea = Pyricularia oryzae (PYRIOR); test: whole plant or invertebrate; type: in vivo; conditions: foliar, read-out: Activity against fungal diseases PYRIOR
[4] = tested on: Septoria tritici (SEPTTR); test: Septoria blotch of wheat foliar protectant test; type: in vivo; conditions: Zymoseptoria tritici, read-out: Activity against fungal diseases SEPTTR; for pest or weed control at 200 ppm: 200 ppm foliar, inoculated one day after treatment
Method in brief: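 Wheat seedlings (3-10 per pot) were sprayed to wet with formulated compound and inoculated next day with Septoria tritici spores. Plants then had 1 day in a dark dew chamber and 3 days in a lighted one before greenhouse incubation. Severity versus untreated inoculated plants gave percent control, scored *** 80-100%, ** 50-79%, * 0-49%.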

[5] = tested on: Septoria tritici (SEPTTR); test: Synergy with pyraclostrobin or epoxiconazole against Septoria blotch; conditions: alone
Procedure: (§1) The compound was evaluated in mixtures with pyraclostrobin, or epoxiconazole for protectant and curative activity against wheat leaf rust (Puccinia triticina, PUCCRT), and Septoria blotch (Septoria tritici, SEPTTR).
(§2) The compound was formulated at six rates (8.1, 2.7, 0.9, 0.3, 0.1, 0.03 ppm) and applied to wheat plants alone and in all combinations of it with pyraclostrobin or epoxiconazole using the methods described in section “Fungicidal Activity” above. Plants were inoculated three days before treatment (3DC) or one day after treatment (1DP), incubated in a greenhouse until disease was expressed, and visually rated (reported as % DC Obs) as described above. The expected control was calculated using the Colby equation (Colby, S. R. Calculation of the synergistic and antagonistic response of herbicide combinations. Weeds 1967 15, 20-22.).
(§3) The following equation was used to calculate the expected activity of mixtures containing two active ingredients, A and B: Expected=A+B−(A×B/100)
(§4) A=observed efficacy of active ingredient A at the same concentration as used in the mixture
(§5) B=observed efficacy of active ingredient B at the same concentration as used in the mixture

[6] = tested on: Puccinia triticina (PUCCRT); test: Synergy with pyraclostrobin or epoxiconazole against wheat leaf rust; conditions: alone
Procedure: as §1, §2, §3, §4, §5

Caenorhabditis elegans = conditions: 10 micrograms per milliliter agar, 24 h at 20° C.
Procedure: The activity of the compounds against Caenorhabditis elegans was determined by dissolving compounds in DMSO, then applying them to petri dishes containing Nematode Growth Medium agar to a final concentration of 10 μg compound per milliliter agar. Escherichia coli bacteria were grown on the plates to provide a food source for the larvae of Caenorhabditis elegans. The bacteria were heat-killed at 65° C. before compounds were added to the plates.
The plates with compound and heat-killed bacteria were infested with 10 microliter drops containing eggs from wild-type Caenorhabditis elegans worms. Adult worms were dissolved in KOH and bleach and washed in Ringers solution to generate the egg suspension. Each compound was screened with approximately 400 eggs, divided between two petri dishes. Egg hatching was evaluated after 24 h at 20° C. Mortality was averaged over the two plates.

[7] = Mouse oral exposure (gavage), 14 days; design: species or system mice; conditions: female, CD-1/Swiss derived albino, in vivo, 5% w/v in 0.5% carboxymethylcellulose, monitored 14 days
Procedure: The effect on mice of oral exposure was determined for compounds differing only in the number of fluorine substituents on the quinazoline ring, as shown in Table 5. Three CD-1/Swiss derived albino female mice were administered compounds by gavage as a 5% w/v mixture in 0.5% carboxymethylcellulose solution. The animals were monitored for 14 days.

[8] = tested on: Colorado Potato Beetle (Leptinotarsa decemlineata, LPTNDE); test: Colorado Potato Beetle larvae on sprayed tomato leaves; type: in vivo; conditions: foliar, 72 h, L2 larvae on sprayed tomato foliage, mortality after three days
Procedure: Formulated test compounds were diluted and sprayed onto leaves of tomato plants. When dry, plant foliage was removed from the plant and placed in 8-well agar trays. Five L2 Colorado potato beetle larvae were placed in each well, and the trays were sealed and incubated at 26° C. Mortality was evaluated after three days.

Compound	pest or weed control at 200 ppm [1]	pest or weed control at 200 ppm [2]	pest or weed control at 200 ppm [3]	pest or weed control at 200 ppm [4]	Percent mortality (Caenorhabditis elegans)	also measured
COc1cc(CCNc2ncnc3c(F)ccc(F)c23)ccc1Oc1cc(C(F)(F)F)ccn1 [Compound 15]	80 to 100%	80 to 100%	80 to 100%	80 to 100%		% DC Obs ([5]; 1DP SEPTTR, 2.7 ppm): 31%; % DC Obs ([5]; 3DC SEPTTR, 0.9 ppm): 22%; % DC Obs ([6]; 1DP PUCCRT, 0.3 ppm): 33%; % DC Obs ([6]; 3DC PUCCRT, 0.3 ppm): 6%; % DC Obs ([6]; 3DC PUCCRT, 0.9 ppm): 52%
Fc1ccc(F)c2c(NCCc3ccc(Oc4nccc(C(F)(F)F)n4)cc3)ncnc12 [Compound 3]	80 to 100%	80 to 100%	50 to 79%	80 to 100%	100%	
Fc1cccc2c(NCCc3ccc(Oc4cc(C(F)(F)F)ccn4)cc3)ncnc12 [drawing 198, reference compound]						LD50 at 14 days [7]: < 100 mg/kg
COc1ccc(CCNc2ncnc3c(F)ccc(F)c23)c(C)c1 [Compound 42]	80 to 100%	80 to 100%	80 to 100%	80 to 100%	6%	
Fc1cc(Oc2cc(C(F)(F)F)ccn2)ccc1CCNc1ncnc2c(F)ccc(F)c12 [Compound 76]	80 to 100%	80 to 100%	80 to 100%	80 to 100%	100%	
Fc1ccc(F)c2c(NCCc3ccc(Oc4ccnc(C(F)(F)F)c4)cc3)ncnc12 [Example 11, (5,8-Difluoroquinazolin-4-yl)-{2-[4-(2-trifluoromethylpyridin-4-yloxy)-phenyl]-ethyl}-amine]						melting point: 95 to 96 °C
Fc1cc(F)c2ncnc(NCCc3ccc(Oc4cnccc4C(F)(F)F)c(Cl)c3)c2c1F [Compound 93]		80 to 100%	80 to 100%	80 to 100%	100%	
N#Cc1ccc(Oc2ccc(CCNc3ncnc4c(F)ccc(F)c34)cc2)nc1 [Compound 124]	80 to 100%	80 to 100%	80 to 100%			pest or weed control at 25 ppm ([4]; foliar, Tested at 25 ppm (footnote b)): 50 to 79%; LC90 [8]: 3.1 to 12.5 µg/mL (≈ 7.68 to 31 µM)
Fc1cc(F)c2ncnc(NCCc3ccc(Oc4ccc(C(F)(F)F)cn4)cc3)c2c1F [Compound 74]	80 to 100%	80 to 100%	80 to 100%	80 to 100%		LC90 [8]: 1 µg/mL (≈ 2.15 µM)
N#Cc1cc(Cl)ncc1Oc1ccc(CCNc2ncnc3c(F)ccc(F)c23)cc1 [Compound 125]	80 to 100%	80 to 100%	80 to 100%	80 to 100%	0%	
Fc1cc(F)c2ncnc(NCCc3ccc(Oc4cc(C(F)(F)F)ccn4)cc3)c2c1F [Compound 31]	80 to 100%	80 to 100%	80 to 100%	80 to 100%		LD50 at 14 days [7]: > 500 mg/kg; LC90 [8]: 50 to 200 µg/mL (≈ 108 to 431 µM)
Fc1ccc(F)c2c(NCCc3ccc(Oc4cc(C(F)(F)F)ccn4)cc3)ncnc12 [Compound 6]	80 to 100%	80 to 100%	80 to 100%	80 to 100%		LD50 at 14 days [7]: 100 to 500 mg/kg; LC90 [8]: 12.5 to 50 µg/mL (≈ 28 to 112 µM)
Fc1ccc([C@]2(Cn3cncn3)O[C@H]2c2ccccc2Cl)cc1 (racemic) [epoxiconazole]						% DC Obs ([5]; 1DP SEPTTR, 0.3 ppm): 36%; % DC Obs ([5]; 3DC SEPTTR, 0.3 ppm): 35%; % DC Obs ([6]; 1DP PUCCRT, 0.1 ppm): 0%; % DC Obs ([6]; 3DC PUCCRT, 0.1 ppm): 13%
[O-][n+]1ccc(C(F)(F)F)c(Oc2ccc(CCNc3ncnc4c(F)ccc(F)c34)cc2)c1 [Compound 115]	80 to 100%	80 to 100%	80 to 100%	80 to 100%	100%	
COC(=O)N(OC)c1ccccc1COc1ccn(-c2ccc(Cl)cc2)n1 [pyraclostrobin]						% DC Obs ([5]; 1DP SEPTTR, 0.3 ppm): 49%; % DC Obs ([5]; 3DC SEPTTR, 0.1 ppm): 14%; % DC Obs ([6]; 1DP PUCCRT, 0.1 ppm): 8%; % DC Obs ([6]; 3DC PUCCRT, 0.3 ppm): 4%
ivermectin [reference compound]					95%	
